According to PMC9428149, “Tackling recalcitrant Pseudomonas aeruginosa infections in critical illness via anti-virulence monotherapy” (Nature Communications, 2022):

Key:
[1] = tested on: pqsA promoter (PA14 PpqsA-GFPASV); assay: pqsA-GFP reporter expression; format: cell-based, Pseudomonas aeruginosa; conditions: PA14 PpqsA-GFPASV; 50µM per b210 (method b76 says 10 µM)
Method: The expression levels of pqsA, which is representative of the pqsABCDE operon transcription, were monitored in the presence of the MvfR inhibitors using PA14 cells containing the PpqsA-GFPASV, a reporter construct of the pqsA promoter fused to a short half-life GFP gene in, such that quantitative quenching of fluorescence corresponds to pqsA promoter repression[22],[32],[48]. […] GFP fluorescence levels were measured at λex = 485 nm/λem = 535 nm after 10 seconds of shaking every 15 min up to 12 h. The IC50 of PpqsA-GFP expression levels was performed as above using the same 13 different concentrations (0.0122–50 μM) for each of the 13 compounds tested.

[2] = tested on: MvfR-regulated small molecules in PA14; assay: Production of HAQs, 2-AA, DHQ and AA in PA14 cultures (LC-MS); conditions: PA14, 50µM inhibitor; for % Production AA: anthranilic acid, precursor control
Method: The HAQs HHQ, PQS, HQNO, and non-HAQs: 2-AA and DHQ produced by PA14 cells were quantified in the presence of NAMs. The overnight grown starter culture was diluted 1:100 in 5 mL LB media in a glass tube and was allowed to grow in the presence (50 µM) or absence of compound at 37 °C and 200 rpm in an incubator shaker until OD600 was 3. Bacterial cultures were subsequently mixed 1:1 (400 μL: 400 μL) with 100% methanol containing 20 ppm (20 μg mL^−1) of tetradeutero-PQS (PQS-D4) and 10 ppm of tetradeutero-HHQ (HHQ-D4) in a 1.5 mL Eppendorf tube. The mixture was vortexed for 5 seconds and spun down for 5 minutes at 12,000 x g. A 700 μL aliquot of the supernatant was removed and stored in glass vials at −20 °C until further liquid chromatography-mass spectrophotometry (LC/MS) analysis as previously described in Lepine et al., 2003[66]. LC/MC analysis was performed using a Micromass Quattro II triple quadrupole mass spectrometer (Micromass Canada, Pointe-Claire, Canada) in positive electrospray ionization mode, interfaced to an HP1100 HPLC equipped with a 4.5 × 150 mm reverse-phase C8 column.
GraphPad Prism 9.2.0 software was used to plot the IC50 curve against the percent inhibition of these small molecules’ production at each concentration.

[3] = tested on: pyocyanin production in PA14; assay: Pyocyanin production assay; conditions: PA14; 50µM of each inhibitor (method says 10 μM); vs vehicle
Method: The over-day culture was grown to OD600nm 1.5., diluted again at 1:10,000 in 5 mL LB and incubated with 10 μM of the test compound or the vehicle control for 18 hours at 37 °C and 200 rpm in an incubator shaker. After 18 h, 1 mL of culture was centrifuged for 2 min at 20.000 x g. The supernatant was transferred to a new tube, 200 μL of this were loaded in a flat-bottom 96-well plate, and the pyocyanin levels were quantified by measuring at OD690nm in the infinite F200 plate reader using the Magellan software (Tecan, Switzerland). […] The percent of pyocyanin was calculated compared to the PA14 culture grown in the absence of compounds.
To determine the IC50 of pyocyanin production, we followed the same process as above. […] Using GraphPad Prism Software, the IC50 curve was plotted against percent inhibition of pyocyanin production at each concentration using PA14 in the absence of compounds as a control.

Row | SMILES | % Production pqsA-GFP [1] | % Production 2-AA [2] | % Production DHQ [2] | % Production HHQ [2] | % Production HQNO [2] | % Production PQS [2] | % Production AA [2] | % Production Pyocyanin [3]
1 | N#Cc1ccc(NC(=O)CC(=O)Nc2ccc([N+](=O)[O-])cc2)cc1 [D51] | 10% | 7% | 12% | 3% | 18% | 6% | 263% | 3%
2 | N#Cc1ccc(NC(=O)CCNc2ccc(F)cc2)cc1 [D34] | 80% | 113% | 100% | 97% | 96% | 97% | 101% | 91%
3 | Cc1cc(F)ccc1NC(=O)CC(=O)Nc1ccc(C#N)cc1 [D48] | 44% | 77% | 91% | 96% | 94% | 90% | 59% | 60%
4 | CS(=O)(=O)Nc1ccc(NC(=O)CC(=O)Nc2ccc(C#N)cc2)cc1 [D55] | 131% | 95% | 80% | 130% | 98% | 115% | 117% | 100%
5 | O=C(CC(=O)Nc1ccc(Oc2ccccc2)cc1)Nc1ccc(F)cc1 [D68] | 52% | 84% | 109% | 121% | 121% | 137% | 127% | 33%
6 | N#Cc1ccc(NC(=O)CC(=O)Nc2ccc(N)cc2)cc1 [D52] | 90% | 101% | 103% | 92% | 92% | 86% | 115% | 87%
7 | O=C(CC(=O)Nc1ccc([N+](=O)[O-])cc1O)Nc1ccc(Oc2ccccc2)cc1 [D61] | 7% | 12% | 8% | 1% | 8% | 6% | 112% | 6%
8 | Cc1cc(F)ccc1NCC(=O)Nc1cccc(C#N)c1 [G1] | 84% | 122% | – | 100% | 101% | 109% | – | 103%
9 | N#Cc1ccc(NC(=O)CC(=O)Nc2ccc(Oc3ccccc3)cc2)c(N)c1 [D62] | 6% | 10% | 16% | 2% | 13% | 9% | 107% | 7%
10 | N#Cc1ccc(NC(=O)CC(=O)Nc2ccc(Oc3ccccc3)cc2)c(O)c1 [D63] | 7% | 5% | 4% | 0% | 4% | 4% | 68% | 6%
11 | N#Cc1ccc(NC(=O)CC(=O)Nc2ccc(C(=O)C(F)(F)F)cc2)cc1 [D50] | 102% | 140% | 89% | 107% | 103% | 104% | 176% | 84%
12 | N#Cc1ccc(NC(=O)CNc2ccc(F)cc2)cc1 [G8] | 63% | 112% | – | 87% | 108% | 124% | – | 86%
13 | Cc1cc(F)ccc1CCNC(=O)c1ccc(C#N)cc1 [D39] | 91% | 106% | 96% | 96% | 102% | 93% | 68% | 110%
14 | O=C(CC(=O)Nc1ccc(Oc2ccccc2)cc1)Nc1ccc(I)cc1 [D59] | 81% | 92% | 93% | 99% | 97% | 93% | 131% | 72%
15 | Cc1cc(F)ccc1OCC(=O)Nc1ccc(C#N)cc1 [G5] | 98% | 63% | 83% | 114% | 111% | 114% | 54% | 98%
16 | O=C(CC(=O)Nc1ccc([N+](=O)[O-])cc1)Nc1ccc(Oc2ccccc2)cc1 [D58] | 9% | 22% | 45% | 20% | 23% | 19% | 101% | 6%
17 | Cc1cc(F)ccc1NC(=O)Cc1ccc(C#N)cc1 [D40] | 96% | 113% | 85% | 102% | 109% | 100% | 81% | 115%

Row | SMILES | % Production pqsA-GFP [1] | % Production 2-AA [2] | % Production DHQ [2] | % Production HHQ [2] | % Production HQNO [2] | % Production PQS [2] | % Production AA [2] | % Production Pyocyanin [3]
18 | N#Cc1ccc(NC(=O)CC(=O)Nc2ccc(I)cc2)cc1 [D56] | 6% | 72% | 136% | 63% | 69% | 62% | 180% | 13%
19 | N#Cc1ccc(NC(=O)CC(Nc2ccc(Oc3ccccc3)cc2)C(F)(F)F)cc1 (stereo not drawn) [D93] | 88% | – | – | – | – | – | – | 91%
20 | N#Cc1ccc(NC(=O)CNc2cccc(F)c2)cc1 [D6] | 68% | – | – | – | – | – | – | 91%
21 | CC(=O)Nc1ccc(NC(=O)CC(=O)Nc2ccc(C#N)cc2)cc1 [D53] | 85% | 93% | 98% | 75% | 85% | 88% | 56% | 103%
22 | CC(F)(C(=O)Nc1ccc(C#N)cc1)C(=O)Nc1ccc(C#N)cc1 [D94] | 85% | – | – | – | – | – | – | 52%
23 | Cc1ccccc1NCC(=O)Nc1ccc(C#N)cc1 [G9] | 93% | 64% | 59% | 76% | 92% | 124% | – | 94%
24 | CC(=O)c1ccc(NC(=O)CC(=O)Nc2ccc(C#N)cc2)cc1 [D49] | 28% | 90% | 106% | 120% | 101% | 119% | 131% | 66%
25 | N#Cc1ccc(NC(=O)C(=O)Nc2ccc(F)cc2)cc1 [D37] | 97% | 103% | 105% | 98% | 99% | 110% | 90% | 106%
26 | N#Cc1ccc(NC(=O)CCC(=O)Nc2ccc(F)cc2)cc1 [D47] | 78% | 100% | 100% | 95% | 93% | 94% | 42% | 99%
27 | CCc1ccccc1NCC(=O)Nc1ccc(C#N)cc1 [D3] | 92% | – | – | – | – | – | – | 97%
28 | O=C(CC(=O)Nc1ccc(Oc2ccccc2)cc1)Nc1ccc(Br)cc1 [D64] | 61% | 78% | 85% | 88% | 88% | 100% | 50% | 48%
29 | N#Cc1ccc(NC(=O)CNc2ccc(Cl)cc2)cc1 [D16] | 18% | – | – | – | – | – | – | 43%
30 | Cc1cc(F)ccc1NCC(=O)Nc1ccc(F)cc1 [G4] | 92% | 80% | 85% | 95% | 92% | 88% | – | 84%
31 | N#Cc1ccc(NC(=O)CC(=O)Nc2ccc(F)cc2)cc1 [D36] | 10% | 37% | 68% | 57% | 59% | 47% | 187% | 16%
32 | N#Cc1ccc(NCC(=O)Nc2ccc(F)cc2)cc1 [D24] | 26% | – | – | – | – | – | – | 59%
33 | COc1ccc(NC(=O)CNc2ccc(F)cc2C)cc1 [D15] | 87% | – | – | – | – | – | – | 102%
